From patent publication US6723522B1, “Sodium bicarbonate cotransporter protein” (Takeda Chemical Industries, Ltd., priority 1998, dated 2004) come the findings set out here.

Structures are written as SMILES.

The subject of this assay is human heart-derived protein hNBC2b (Na+—HCO3− cotransporter). Kind of assay: Analysis of functions of human heart-derived protein by intracellular pH measurement (BCECF, ammonium pre-pulse) in hNBC2b-33/CHO-K1 cell. It counts as cell-based. The note with it: DIDS final concentration 100 μM, 1 mM amyloride present. Here is the method: Data is expressed as mean±standard error. Comparison between 2 groups was carried out by T test and p<0.001 was determined to be significant. hNBC2b-33/CHO-K1 cell which had been cultured in Ham F12 medium (manufactured by Nissuiseiyaku) containing 10% bovine fetal serum (manufactured by Life Technologies, Inc.; USA) and wild type CHO-K1 cell as a control were seeded on a 96-well white plate to 2×10^4 cells/well, and cultured in a carbonic gas incubator at 37° C. for 48 hours. […] The solution was aspiration-removed, washed with 150 μl of A solution, the solution was aspiration-removed, 150 μl of A solution containing 1 mM amyloride (manufactured by Sigma) was added, and variation in an intracellular pH was measured with a fluorescent drug screening system FDSS 2000 (Hamamatsu Photonics). 200 μl of C solution (115 mM sodium chloride, 25 mM potassium chloride, 25 mM sodium bicarbonate, 0.8 mM dipotassium phosphate, 0.2 mM monopotassium phosphate, 1 mM potassium chloride, 1 mM magnesium chloride, 1 mM amyloride (manufactured by Sigma), 10 mM HEPES, pH 7.4) was added, and an increased amount of an intracellular pH increased in 1 minute (a ratio of fluorescent values at 450 nm and 490 nm (450 nm/490 nm)) was calculated. […]

For `O=S(=O)(O)c1cc(N=C=S)ccc1C=Cc1ccc(N=C=S)cc1S(=O)(=O)O` [DIDS, 4,4′-diisothiocyanatostilbene-2,2′-disulfonic acid], the “increase in an intracellular pH after addition of C solution containing sodium ions and bicarbonate ions (ratio of fluorescent values 450 nm/490 nm)” value was “suppressed”.
